Assay [1] deals with Mantle Cell Lymphoma Z-138 cell. Briefly: Cell proliferation inhibition, Z-138 (CCK8). The class given is cell-based. The conditions noted are these: Z-138, incubated 4 days. The source says:
(§1) Materials and Cell Lines: Z-138, U251, and MIA PaCa2 cells were purchased from ATCC (American Type Culture Collection, Manassas, Va.) and Chinese Academy of Science (Shanghai, China). Iscove's Modified Dulbecco's Medium (IMDM), Dulbecco's Modified Eagle Medium (DMEM), penicillin-streptomycin, heat inactivated fetal bovine serum (FBS), and horse serum was purchased from ThermoFisher, Waltham, Mass., USA. Corning 96- and 384-well cell culture plates were purchased from ThermoFisher, Waltham, Mass., USA. Cell-Titer Glo® was purchased from Promega Corporation, Madison, Wis., USA.
In order to evaluate the inhibitory ability of compounds synthesized on the proliferation of the Mantle Cell Lymphoma Z-138 cell, exponentially growing cells were seeded in the media of IMDM with 10% horse serum and 1% penicillin-streptomycin at a concentration of 30000 cells/ml in a 96-well plate with 100 ul per well and incubated overnight at 37° C., 5% CO2 incubator. Compounds were prepared as 10-point, 3-fold serial dilutions in DMSO, beginning at 6 mM. 1 μl of DMSO solutions from the compound stock plates were added to 99 ul of cell culture media (final top concentration of compound in the assay was 30 uM and the final concentration of DMSO was 0.5%). 100 μL of compound solutions in media were added to each well of Z-138 cell plates. After adding compound solutions, assay plates were incubated for 4 days at 37° C., 5% CO2. Cell viability was measured using the Cell Counting Kit-8 (CCK8) obtained from the Beyotime Biotehnology, Shanghai, China. 20 ul of CCK8 reagent was added to each well of the Z-138 assay plate which was incubated at 37° C. for 2 hours. O.D. at 450 nm was read with the FlexStation 3 microplate reader (Molecular Devices, Sunnyvale, Calif. 94089 USA). The concentrations of compounds inhibiting cell viability by 50% (IC50 values) were determined using a sigmoidal dose-response model (variable slopes, four parameters) in Prism 7 (La Jolla, Calif.).

Assay [2] has as its system Pancreatic Carcinoma MIA PaCa-2 cell. Briefly: Cell proliferation inhibition, MIA PaCa-2 (CellTiter-Glo). The conditions noted are these: Homo sapiens, MIA PaCa-2, incubated for 12 days (read after 8 or 12 days), read-out: IC50 (μM) MIA PaCa2. The class given is cell-based.
From the text: as §1
In order to evaluate the inhibitory ability of compounds synthesized on the proliferation of the Pancreatic Carcinoma MIA PaCa-2 cell, exponentially growing cells were seeded in the culture media of DMEM with 10% FBS, 2.5% horse serum, 1 mM of Sodium Pyruvate and 1% penicillin-streptomycin at a concentration of 2500 cells/ml in a 384-well plate with 20 ul per well and incubated overnight at 37° C., 5% CO2 incubator. Compounds were prepared as 10-point, 3-fold serial dilutions in DMSO, beginning at 6 mM. 1 μl of DMSO solutions from the compound stock plates were added to 99 ul of cell media (final top concentration of compound in the assay was 30 uM and the final concentration of DMSO was 0.5%). 20 μL of compound solutions in media were added to each well of MIA PaCa-2 cell plates. After adding compound solutions, assay plates were incubated for 12 days at 37° C., 5% CO2. During this incubation period, cell media was changed every 4 days. After removing old media from cell plates, 40 ul of media with testing compounds dissolved, which were prepared by adding 1 ul of compound DMSO serial solutions to 199 ul of cell media, were added to the assay plates with the same layout as they were initially prepared. After 8 or 12 days, cell viability was measured using the CellTiter-Glo assay kit from Promega (Madison, Wis., USA) by quantitating the ATP present in the cell cultures. 20 μL of CellTiter-Glo reagent was added to each well of the cell plates. Luminescence was read after 10 minute of incubation with the Envision multiple plate reader from PerkinElmer (Waltham, Mass., USA). The concentrations of compounds inhibiting cell viability by 50% (IC50 values) were determined using a sigmoidal dose-response model (variable slopes, four parameters) in Prism 7 (La Jolla, Calif., USA).
In general terms: In ATP-based viability assays light output follows the ATP content of the culture.

Another assay relates to Glioblastoma U-251 cell. The assay can be described thus: Cell proliferation inhibition, U-251 (CellTiter-Glo). The class given is cell-based. The conditions noted are these: Homo sapiens, U-251, incubated for 12 days (read after 8 or 12 days).
From the text: as §1
In order to evaluate the inhibitory ability of compounds synthesized on the proliferation of the Glioblastoma U-251 cell, exponentially growing cells were seeded in the cell culture media of DMEM with 10% FBS and 1% penicillin-streptomycin at a concentration of 10000 cells/ml in a 384-well plate with 20 ul per well and incubated overnight at 37° C., 5% CO2 incubator. Compounds were prepared as 10-point, 3-fold serial dilutions in DMSO, beginning at 6 mM. 1 μl of DMSO solutions from the compound stock plates were added to 99 ul of cell culture media (final top concentration of compound in the assay was 30 uM and the final concentration of DMSO was 0.5%). 20 μL of compound solutions in media were added to each well of U-251 cell plates. After adding compound solutions, assay plates were incubated for 12 days at 37° C., 5% CO2. During this incubation period, cell culture media with freshly dissolved testing compounds was changed every 4 days. After removing old media from cell plates, 40 ul of media with testing compounds dissolved, which were prepared by adding 1 ul of compound DMSO serial solutions to 199 ul of cell media, were added to the assay plates with the same layout as they were initially prepared. After 8 or 12 days, cell viability was measured using the CellTiter-Glo assay kit from Promega (Madison, Wis., USA) by quantitating the ATP present in the cell cultures. 20 μL of CellTiter-Glo reagent was added to each well of the cell plates. Luminescence was read after 10 minute of incubation with the Envision multiple plate reader from PerkinElmer (Waltham, Mass., USA). The concentrations of compounds inhibiting cell viability by 50% (IC50 values) were determined using a sigmoidal dose-response model (variable slopes, four parameters) in Prism 7 (La Jolla, Calif., USA).

Assay [3] concerns the target Human recombinant PRMT5 in complex with human recombinant MEP50 (Homo sapiens (Human), UniProt O14744). The assay can be described thus: PRMT5/MEP50 AlphaLISA enzyme inhibitory assay. The class given is biochemical. The conditions noted are these: PRMT5/MEP50 25 nM, SAM 10 μM, Biotin-H4 peptide 30 nM. The procedure, abridged: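 Insect-cell-expressed PRMT5/MEP50 (25 nM) preincubated with SAM (10 μM), then 15 min with compound in pH 8.5 Tris buffer, 1% DMSO. Biotin-H4(1–21) peptide (30 nM) reaction ran 120 min at room temperature. H4R3 methylation detected by AlphaLISA; IC50 from four-parameter sigmoidal fit.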
(Bead proximity is the source of the signal in Alpha formats.)

Experimental findings from patent US11591326B2, “Inhibitors of protein arginine methyltransferase 5 (PRMT5), pharmaceutical products thereof, and methods thereof” (PHARMABLOCK SCIENCES (NANJING), INC., priority 2018, dated 2023) are described below.

Chain of Human recombinant PRMT5 in complex with human recombinant MEP50 (O14744 whole entry): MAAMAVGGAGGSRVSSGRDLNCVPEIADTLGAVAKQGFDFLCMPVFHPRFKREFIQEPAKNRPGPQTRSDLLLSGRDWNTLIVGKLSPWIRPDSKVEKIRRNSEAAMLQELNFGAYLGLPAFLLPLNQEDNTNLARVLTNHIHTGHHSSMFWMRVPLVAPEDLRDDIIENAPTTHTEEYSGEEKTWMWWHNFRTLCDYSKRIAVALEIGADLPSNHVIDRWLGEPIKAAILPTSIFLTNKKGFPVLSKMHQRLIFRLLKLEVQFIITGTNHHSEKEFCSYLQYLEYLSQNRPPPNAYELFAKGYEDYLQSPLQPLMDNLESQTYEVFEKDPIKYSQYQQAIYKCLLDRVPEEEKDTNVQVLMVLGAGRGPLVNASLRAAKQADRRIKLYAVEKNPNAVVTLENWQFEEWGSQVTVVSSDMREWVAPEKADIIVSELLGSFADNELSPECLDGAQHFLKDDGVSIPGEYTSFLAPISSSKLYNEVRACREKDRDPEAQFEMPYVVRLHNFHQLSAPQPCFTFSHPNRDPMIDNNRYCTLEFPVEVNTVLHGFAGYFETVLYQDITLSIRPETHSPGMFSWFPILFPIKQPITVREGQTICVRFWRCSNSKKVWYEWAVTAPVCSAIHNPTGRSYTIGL
Chain of Human recombinant PRMT5 in complex with human recombinant MEP50 (Q9BQA1 whole entry partner): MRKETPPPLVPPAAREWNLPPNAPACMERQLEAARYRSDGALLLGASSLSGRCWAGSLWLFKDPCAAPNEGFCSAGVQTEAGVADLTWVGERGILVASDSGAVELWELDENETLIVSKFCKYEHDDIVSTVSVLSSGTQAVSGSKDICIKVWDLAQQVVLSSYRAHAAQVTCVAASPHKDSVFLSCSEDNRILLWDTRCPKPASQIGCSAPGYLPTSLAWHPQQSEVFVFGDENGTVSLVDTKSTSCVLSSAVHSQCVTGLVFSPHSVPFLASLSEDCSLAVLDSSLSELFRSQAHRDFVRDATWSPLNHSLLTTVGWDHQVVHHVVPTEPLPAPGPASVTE

Broadly, the IC50 is the concentration needed to halve the response being measured. Consider `Cn1cc(Nc2ccc3c(c2)C(=O)N(C[C@H](O)CN2CCc4ccccc4C2)CC3)cn1` [Compound 12a, (R)-2-(3-(3,4-dihydroisoquinolin-2(1H)-yl)-2-hydroxypropyl)-7-((1-methyl-1H-pyrazol-4-yl)amino)-3,4-dihydroisoquinolin-1(2H)-one], for which the IC50 in assay [1] (Homo sapiens, Z-138, 96 h) is 0.13 µM; in assay [2], 0.66 µM; in the assay with Glioblastoma U-251 cell, 0.48 µM; in assay [3], 12 nM.

Consider `O=C(NC[C@@H](O)CN1CCc2ccccc2C1)c1cc(NC2COC2)ncn1` [Compound C2, reference compound], for which the IC50 came out at 9.1 µM in assay [1] (Homo sapiens, Z-138, 96 h); 12.1 µM in assay [2]; 28.3 µM in the assay with Glioblastoma U-251 cell.

In the case of `Cn1cc(Nc2ccc3c(c2)C(=O)N(C[C@H](O)CN2CCc4ccccc4C2)CCO3)cn1` [Compound 29a, (R)-4-(3-(3,4-dihydroisoquinolin-2(1H)-yl)-2-hydroxypropyl)-7-((1-methyl-1H-pyrazol-4-yl)amino)-3,4-dihydrobenzo[f][1,4]oxazepin-5(2H)-one], the IC50 in assay [1] (Homo sapiens, Z-138, 96 h) was found to be 0.073 µM; in assay [2], 0.4 µM; in the assay with Glioblastoma U-251 cell, 0.14 µM; in assay [3] it was 8.4 nM.

For the molecule `O=C(NC[C@H](O)CN1CCc2ccccc2C1)c1cc(NC2COC2)ncn1` [Compound C1, reference compound], the IC50 in assay [1] (Homo sapiens, Z-138, 96 h) turned out to be 0.11 µM; in assay [1] (listed as Ref 1 (EPZ-015666a)), 0.16 µM; in assay [2] it was 2 µM; in the assay on Glioblastoma U-251 cell it was 1.2 µM.

In the case of `O=C1c2cc(Nc3ccnnc3)ccc2OCCN1C[C@H](O)CN1CCc2ccccc2C1` [Compound 30a, (R)-4-(3-(3,4-dihydroisoquinolin-2(1H)-yl)-2-hydroxypropyl)-7-(pyridazin-4-ylamino)-3,4-dihydrobenzo[f][1,4]oxazepin-5(2H)-one], the IC50 in assay [1] (Homo sapiens, Z-138, 96 h) amounted to 0.018 µM; in assay [2] it was 0.23 µM; in the assay on Glioblastoma U-251 cell, 0.18 µM; in assay [3], 4.6 nM.

Regarding `CC(=O)N1CCC(Nc2ccc3c(c2)C(=O)N(C[C@@H](O)CN2CCc4ccccc4C2)CCO3)CC1` [Compound 52b], the IC50 is 0.137 µM in assay [1] (Homo sapiens, Z-138, 96 h); 0.83 µM in assay [2]; 5.8 µM in the assay with Glioblastoma U-251 cell; 108 nM in assay [3].

Take `O=C1c2cc(Nc3ccnnc3)ccc2CCN1C[C@H](O)CN1CCc2ccccc2C1` [Compound 28a, (R)-2-(3-(3,4-dihydroisoquinolin-2(1H)-yl)-2-hydroxypropyl)-7-(pyridazin-4-ylamino)-3,4-dihydroisoquinolin-1(2H)-one]: the IC50 in assay [1] (Homo sapiens, Z-138, 96 h) worked out at 0.029 µM; in assay [2], 0.68 µM; in the assay with Glioblastoma U-251 cell it was 0.5 µM; in assay [3] it was 4.9 nM.
